The target in experiment [1] is T1, HLA-DR1301 (Homo sapiens, UniProt P01903+P01911, A100E/A169T/K41T/L162R/M171V/P40S/Q125H/Q178H/Q39Y/Q99D/R42S/S66N/T262R/W38E/Y61H).
T1 construct: expressed in transfected cells; host or cells: DAP.3 murine fibroblasts (gift of C. Hurley and R. Rosen-Bronson)
The experiment in a line: Competitive peptide-binding assay with biotinylated MBP peptide. Particulars: analog at 6.25 μM to 400 μM, OD at 450 nm. The procedure:
1.5×10^6 HLA-DR-transfected Dap.3 cells were washed in Hanks' Balanced Salt Solution, fixed with 1% paraformaldehyde, washed with RPMI medium and PBS, and resuspended in binding buffer. Biotinylated MBP peptide was added at 200 μg/ml (for MBP 152-165) or 1 μg/ml (for MBP 83-97). BSA was added at 1%. The blocking compound (analogue 6) was added at multiple concentrations ranging from 6.25 μM to 400 μM and incubated overnight in a shaking water bath at 37° C. The samples were then washed and lysed with 100 μl lysis buffer containing 1% nonidet-P40 on ice for 40 min. After centrifugation, the supernatant containing the cell membrane fragments was […] to a 96-well plate pre-coated with the L243 monoclonal antibody that binds to all HLA-DR molecules. The lysis buffer was neutralized with 100 μl n-octyl-β-D-glucopyranoside overnight at 4° C. The samples were then washed and incubated with streptavidin-peroxidase for 1 hour at room temperature. […] OD was measured by an ELISA reader at 450 nm. Competition of the compound for the MBP peptide was calculated according to the following formula: [formula]
This assay evaluates the binding of biotinylated MBP peptide to HLA-DR1301 in the presence of different concentrations of the analog (analog 6 of lead compound). The amounts of MBP peptide bound (label) to the HLA molecule are then quantitated based on the amount of biotin detected.

Experiment [2] addresses T1, HLA-DR1301. In words: IL-2 secretion functional blocking assay, DR1301-restricted TCR transfectants with MBP 152-165. Type of experiment: cell-based. The note with it: for specificity for DR-1301 as compared with DR-1501, by inhibitory effect on IL-2 secretion: DR1301- versus DR1501-restricted TCR transfectants; for inhibition of IL-2 secretion / blocking of antigen presentation by DR-1301: DR1301 and TCR transfectants, MBP peptide, IL-2 in supernatant by ELISA. The text has this: The murine T-cell hybridoma cell line BW58α-β- (a gift of […] and W. Born) was used for transfection of human TCRα and β cDNA isolated from patients with multiple sclerosis (Hastings, 1996). The parental DAP.3 murine fibroblast cell line was used for transfection of DR(α,β1*1301) or DR((α,β*1501) as previously described (a gift of C. Hurley and R. Rosen-Bronson)) ([Hurley, 1995), [Posch, 1995), [Rosen-Bronson, 1991). All cells lines were maintained in DMEM supplemented with 10% fetal calf serum, 50 U/ml penicillin G, 50 μg/ml streptomycin, 1 mM sodium pyruvate, 2 mM glutamine, and 10 mM HEPES buffer (all Gibco/BRL, Gaithersburg, Md.). TCR- and HLA-transfectants were expanded using 1 mg/ml G418 (Gibco/BRL), or 1 mg/ml G418 and 1 mg/ml hygromycin (Calbiochem, San Diego, Calif.), respectively. Cells were washed and resuspended in DMEM complete medium without antibodies. 10^5 cells of the TCR-transfected or untransfected (control) BW58α-β- cells and an equal number of DR-transfected or untransfected (control) Dap.3 cells were incubated with MBP 152-165, or MBP 83-97 and various concentrations of compound, using an U-bottom 96 well plate (Costar). Cell culture supernatants were harvested after […] and stored at -70° C. until use. IL-2 cytokine concentrations (pg/ml) of supernatants were measured by ELISA (Genzyme, Cambridge, Mass.) according to the manufacturer's instructions. The activity of compounds identified by MCDOCK in functional assays that measure inhibition of IL-2 secretion by DR1301 and DR1501-restricted TCR transfectants using compound #105 and several other compounds was evaluated. The results obtained with compound #105 are contained in FIG. 3. In the figure t1 and t2 represent dose-response curves generated in two different experiments. TCR and DR transfectants were incubated for 36 hours with or without compound and the appropriate MBP peptide. IL-2 concentration of the supernatants was then analyzed by ELISA.

A further experiment concerns the target T2, HLA-DR1501 (Homo sapiens, UniProt P01903+P01911).
T2 construct: expressed in transfected cells; host or cells: DAP.3 murine fibroblasts (gift of C. Hurley and R. Rosen-Bronson)
In words: IL-2 secretion functional blocking assay, DR1501-restricted TCR transfectants with MBP 83-97. It counts as cell-based. The note with it: DR1501 and TCR transfectants, MBP peptide, IL-2 in supernatant by ELISA. The text has this: The murine T-cell hybridoma cell line BW58α-β- (a gift of B. Malissen and W. Born) was used for transfection of human TCRα and β cDNA isolated from patients with multiple sclerosis (Hastings, 1996). The parental DAP.3 murine fibroblast cell line was used for transfection of DR(α,β1*1301) or DR((α,β*1501) as previously described (a gift of C. Hurley and R. Rosen-Bronson)) ([Hurley, 1995), [Posch, 1995), [Rosen-Bronson, 1991). All cells lines were maintained in DMEM supplemented with 10% fetal calf serum, 50 U/ml penicillin G, 50 μg/ml streptomycin, 1 mM sodium pyruvate, 2 mM glutamine, and 10 mM HEPES buffer (all Gibco/BRL, Gaithersburg, Md.). TCR- and HLA-transfectants were expanded using 1 mg/ml G418 (Gibco/BRL), or 1 mg/ml G418 and 1 mg/ml hygromycin (Calbiochem, San Diego, Calif.), respectively.
Cells were washed and resuspended in DMEM complete medium without antibodies. […] IL-2 cytokine concentrations (pg/ml) of supernatants were measured by ELISA (Genzyme, Cambridge, Mass.) according to the manufacturer's instructions.
The activity of compounds identified by MCDOCK in functional assays that measure inhibition of IL-2 secretion by DR1301 and DR1501-restricted TCR transfectants using compound #105 and several other compounds was evaluated. […] IL-2 concentration of the supernatants was then analyzed by ELISA.

SMILES strings stand for the structures. Entries after “also recorded” stand apart in the source; their conditions may differ.

With `O=C(CNc1ccc(Cl)cc1Cl)NC1C=Cc2ccc(S(=O)(=O)Nc3ccc(Cl)cc3Cl)cc2C1=O` (stereo not drawn) [analog #6, 2-[(2,4-dichlorophenyl)amino]-N-(7-{[(2,4-dichlorophenyl)amino]sulfonyl}-1-oxo(2-2-hydronaphthyl))acetamide], the “competition with biotinylated MBP peptide for binding to DR1301” value on HLA-DR1301 [1] is “specific binding of the compound to HLA-DR1301; also recorded: specifically competes with MBP peptide for binding to purified DR1301 molecules”. The “specificity for DR-1301 as compared with DR-1501, by inhibitory effect on IL-2 secretion” value on HLA-DR1301 [2] was “greater degree of specificity for DR-1301 as compared with DR-1501”; on HLA-DR1301 [2] (listed as #6) it was “greater specificity for DR1301 than #105”.

With `COc1ccc(NS(=O)(=O)c2ccc3ncn(NS(=O)(=O)c4ccc(I)cc4)c(=O)c3c2)cc1` [analog #14, 3-{[(4-iodophenyl)sulfonyl]amino}-6-{[(4-methoxyphenyl)amino]sulfonyl}-3-hydroquinazolin-4-one], the “inhibition of IL-2 secretion / blocking of antigen presentation by DR-1301” value at HLA-DR1301 [2] was “inactive”.

Regarding `CC(=O)Nc1ccc(NCC(=O)Nn2cnc3ccc(S(=O)(=O)Nc4ccc(NC(C)=O)cc4)cc3c2=O)cc1` [compound #105, 2-{[4-(acetylamino)phenyl]amino}-N-[6-({[4-(acetylamino)phenyl]amino}sulfonyl)-4-oxo(3-hydroquinazolin-3-yl)]acetamide], the “inhibition of IL-2 secretion / blocking of antigen presentation by DR-1501” value at HLA-DR1501 is recorded as “weaker inhibition”. Besides, on HLA-DR1301 [2], the “specificity for DR-1301 as compared with DR-1501, by inhibitory effect on IL-2 secretion” value was “most effective in discriminating” and the “inhibition of IL-2 secretion / blocking of antigen presentation by DR-1301” value was “strong inhibition”. Moreover, at HLA-DR1301 [2] (listed as lead compound #105), the “inhibition of IL-2 secretion / blocking of antigen presentation by DR-1301” value was “significant effect”. For the same compound, on HLA-DR1301 [2] (MBP 0 to 1200 micrograms/ml, DR1301-restricted TCR transfectants), the “reversal of inhibition of IL-2 production by increasing MBP 152-165 peptide concentration” value is given as “best dose-response curves”.

For the origin of these results see patent publication US20020042423A1, “METHODS FOR IDENTIFYING COMPOUNDS THAT BIND TO HLA MOLECULES AND USE OF SUCH COMPOUNDS AS HLA-AGONISTS OR ANTAGONISTS” (priority 1998, published 2002).
